The experiment has as its target T1, RXFP1 (Homo sapiens, UniProt Q9HBX9).
T1 construct: OVCAR5 cells expressing endogenous RXFP1; endogenous in cells; host or cells: OVCAR5 cells
T1 sequence (Q9HBX9 1-757): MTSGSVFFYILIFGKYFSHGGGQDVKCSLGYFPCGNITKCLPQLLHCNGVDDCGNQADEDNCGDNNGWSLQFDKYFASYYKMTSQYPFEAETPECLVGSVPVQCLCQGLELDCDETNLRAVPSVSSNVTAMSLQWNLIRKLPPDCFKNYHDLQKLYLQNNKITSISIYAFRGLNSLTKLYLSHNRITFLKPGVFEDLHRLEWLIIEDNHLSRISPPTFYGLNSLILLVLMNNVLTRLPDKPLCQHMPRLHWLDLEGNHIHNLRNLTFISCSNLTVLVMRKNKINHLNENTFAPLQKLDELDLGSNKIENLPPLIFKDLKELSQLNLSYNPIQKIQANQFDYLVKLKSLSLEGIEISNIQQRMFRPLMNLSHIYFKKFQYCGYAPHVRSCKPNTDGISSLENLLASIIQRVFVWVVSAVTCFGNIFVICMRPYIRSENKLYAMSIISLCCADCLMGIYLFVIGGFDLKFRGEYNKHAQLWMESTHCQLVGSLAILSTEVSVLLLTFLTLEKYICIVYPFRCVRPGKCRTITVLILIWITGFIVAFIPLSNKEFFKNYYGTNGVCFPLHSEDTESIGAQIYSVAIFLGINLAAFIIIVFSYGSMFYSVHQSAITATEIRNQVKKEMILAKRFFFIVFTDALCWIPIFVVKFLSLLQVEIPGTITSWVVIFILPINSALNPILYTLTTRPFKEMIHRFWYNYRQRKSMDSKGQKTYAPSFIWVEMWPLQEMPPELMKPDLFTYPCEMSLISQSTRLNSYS
In words: OVCAR5 cAMP assay (HTRF), RXFP1 agonist activity. The experiment is classed as cell-based. To be noted: for EC50: OVCAR5 cells, cAMP HTRF, read-out: EC50 (nM), OVCAR 5 cells (cAMP); for Emax: OVCAR-5, maximal cAMP relative to H2-relaxin maximum (100%), read-out: EMax, OVCAR 5 cells (cAMP). Put shortly:
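cAMP accumulation readout: after 1 mM IBMX for 40 min, endogenous-RXFP1 OVCAR5 cells got rising peptide concentrations without FCS, 30 min, 37° C, then lysis with HTRF cAMP reagents. Nonlinear regression gave EC50; Emax expressed relative to H2-relaxin maximum, same occasion.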
(In general: cAMP levels reflect the balance of adenylyl cyclase and phosphodiesterase activity.)

In US10988523B2, “Modified lipidated Relaxin B chain peptides and their therapeutic use” (Sanofi, priority 2018, dated 2021) one finds EC50 and Emax data, which are given here for 7 compounds.

The structures appear in SMILES notation. *1 amine or outer side, *2 acyl side, *3 side chain or, on linkers, in order; H or OH if unused. Where a SMILES comes first, the peptide text is derived from it. Side-chain parts run from the residue outwards. [ ]: non-standard residue; d: D form. The star is where a group is joined. PEG12 = NCCOCCOCCOCCOCCOCCOCCOCCOCCOCCOCCOCCOCCC(=O)O; γGlu = O=C(O)[C@H](CCC(=O)[*:2])N[*:1]; Pentadecanoyl = CCCCCCCCCCCCCCC(=O)*; Stearoyl = CCCCCCCCCCCCCCCCCC(=O)*; Palmitoyl = CCCCCCCCCCCCCCCC(=O)*; Nle = CCCC[C@H](N)C(=O)O; AEEA = NCCOCCOCC(=O)O; Aib = CC(C)(N)C(=O)O

`CCCCCCCCCCCCCCCC(=O)N[C@@H](CCC(=O)N[C@@H](CCC(=O)N[C@@H](CCC(=O)NCCOCCOCC(=O)NCCOCCOCC(=O)NCCCC[C@H](NC(=O)[C@H](CCCCN)NC(=O)[C@H](CCCCN)NC(=O)[C@H](CCCNC(=N)N)NC(=O)C(C)(C)NC(=O)[C@H](CO)NC(=O)[C@H](Cc1c[nH]c2ccccc12)NC(=O)[C@@H](NC(=O)[C@H](CO)NC(=O)[C@H](CCCC)NC(=O)CNC(=O)[C@H](CCC(=O)O)NC(=O)C(C)(C)NC(=O)C(C)(C)NC(=O)[C@@H](NC(=O)[C@H](CCCCNC(C)=O)NC(=O)[C@H](C)NC(=O)[C@H](CCCNC(=N)N)NC(=O)[C@@H](NC(=O)[C@H](CCCCN)NC(=O)[C@H](CCC(=O)O)NC(=O)[C@H](CCCNC(=N)N)NC(=O)CNC(=O)[C@H](CCC(=O)O)NC(=O)[C@H](CC(C)C)NC(C)=O)C(C)C)[C@@H](C)CC)[C@@H](C)O)C(N)=O)C(=O)O)C(=O)O)C(=O)O` [compound 60] (Ac-LEGREKVRAK(Ac)I[Aib][Aib]EG[Nle]STWS[Aib]RKKK([AEEA-AEEA-γGlu-γGlu-γGlu-Palmitoyl])-NH2): the EC50 (in general, the concentration needed to bring the measured effect to its halfway point) is 0.11 nM and the maximum response (Emax) (in general, the greatest response seen or fitted, relative to the assay's reference) worked out at 91%.

For `CCCCCCCCCCCCCCCC(=O)N[C@@H](CCC(=O)N[C@@H](CCC(=O)N[C@@H](CCC(=O)NCCCC[C@H](NC(=O)COCCOCCNC(=O)COCCOCCNC(=O)[C@H](CCCCN)NC(=O)[C@H](CCCNC(=N)N)NC(=O)C(C)(C)NC(=O)[C@H](CO)NC(=O)[C@H](Cc1c[nH]c2ccccc12)NC(=O)[C@@H](NC(=O)[C@H](CO)NC(=O)[C@H](CCCC)NC(=O)CNC(=O)[C@H](CCC(=O)O)NC(=O)C(C)(C)NC(=O)C(C)(C)NC(=O)[C@@H](NC(=O)[C@H](CCC(N)=O)NC(=O)[C@H](C)NC(=O)[C@H](CCCNC(=N)N)NC(=O)[C@@H](NC(=O)[C@H](CCCCN)NC(=O)[C@H](CCC(=O)O)NC(=O)[C@H](CCCNC(=N)N)NC(=O)CNC(=O)[C@H](CCC(=O)O)NC(=O)[C@H](CC(C)C)NC(C)=O)C(C)C)[C@@H](C)CC)[C@@H](C)O)C(N)=O)C(=O)O)C(=O)O)C(=O)O` [compound 11] (Ac-LEGREKVRAQI[Aib][Aib]EG[Nle]STWS[Aib]RK[AEEA][AEEA]K([γGlu-γGlu-γGlu-Palmitoyl])-NH2), the Emax was 89%.

As to `CCCCCCCCCCCCCCC(=O)N[C@@H](CCC(=O)N[C@@H](CCC(=O)N[C@@H](CCC(=O)NCCOCCOCC(=O)NCCOCCOCC(=O)NCCOCCOCC(=O)NCCCC[C@H](NC(=O)[C@H](CCCCNC(C)=O)NC(=O)[C@H](CCCCN)NC(=O)[C@H](CCCNC(=N)N)NC(=O)C(C)(C)NC(=O)[C@H](CO)NC(=O)[C@H](Cc1c[nH]c2ccccc12)NC(=O)[C@@H](NC(=O)[C@H](CO)NC(=O)[C@H](CCCC)NC(=O)CNC(=O)[C@H](CCC(=O)O)NC(=O)C(C)(C)NC(=O)C(C)(C)NC(=O)[C@@H](NC(=O)[C@H](CCCCNC(C)=O)NC(=O)[C@H](C)NC(=O)[C@H](CCCNC(=N)N)NC(=O)[C@@H](NC(=O)[C@H](CCCCN)NC(=O)[C@H](CCC(=O)O)NC(=O)[C@H](CCCNC(=N)N)NC(=O)CNC(=O)[C@H](CCC(=O)O)NC(=O)[C@H](CC(C)C)NC(C)=O)C(C)C)[C@@H](C)CC)[C@@H](C)O)C(N)=O)C(=O)O)C(=O)O)C(=O)O` [compound 163] (Ac-LEGREKVRAK(Ac)I[Aib][Aib]EG[Nle]STWS[Aib]RKK(Ac)K([AEEA-AEEA-AEEA-γGlu-γGlu-γGlu-Pentadecanoyl])-NH2), the maximal effect (Emax) worked out at 87%.

Regarding `CCCCCCCCCCCCCCCCCC(=O)N[C@@H](CCC(=O)N[C@@H](CCC(=O)N[C@@H](CCC(=O)NCCCC[C@H](NC(=O)CCOCCOCCOCCOCCOCCOCCOCCOCCOCCOCCOCCOCCNC(=O)[C@H](CCCCN)NC(=O)[C@H](CCCNC(=N)N)NC(=O)C(C)(C)NC(=O)[C@H](CO)NC(=O)[C@H](Cc1c[nH]c2ccccc12)NC(=O)[C@@H](NC(=O)[C@H](CO)NC(=O)[C@H](CCCC)NC(=O)CNC(=O)[C@H](CCC(=O)O)NC(=O)C(C)(C)NC(=O)C(C)(C)NC(=O)[C@@H](NC(=O)[C@H](CCCCNC(C)=O)NC(=O)[C@H](C)NC(=O)[C@H](CCCNC(=N)N)NC(=O)[C@@H](NC(=O)[C@H](CCCCN)NC(=O)[C@H](CCC(=O)O)NC(=O)[C@H](CCCNC(=N)N)NC(=O)CNC(=O)[C@H](CCC(=O)O)NC(=O)[C@H](CC(C)C)NC(C)=O)C(C)C)[C@@H](C)CC)[C@@H](C)O)C(N)=O)C(=O)O)C(=O)O)C(=O)O` [compound 34] (Ac-LEGREKVRAK(Ac)I[Aib][Aib]EG[Nle]STWS[Aib]RK[PEG12]K([γGlu-γGlu-γGlu-Stearoyl])-NH2), the Emax came out at 95%.

Regarding `CCCCCCCCCCCCCCCCCC(=O)N[C@@H](CCC(=O)N[C@@H](CCC(=O)N[C@@H](CCC(=O)NCCCC[C@H](NC(=O)CCOCCOCCOCCOCCOCCOCCOCCOCCOCCOCCOCCOCCNC(=O)[C@H](CCCCNC(C)=O)NC(=O)[C@H](CCCCN)NC(=O)[C@H](CCCNC(=N)N)NC(=O)C(C)(C)NC(=O)[C@H](CO)NC(=O)[C@H](Cc1ccc(O)cc1)NC(=O)[C@@H](NC(=O)[C@H](CO)NC(=O)[C@H](CCCC)NC(=O)CNC(=O)[C@H](CCC(=O)O)NC(=O)C(C)(C)NC(=O)C(C)(C)NC(=O)[C@@H](NC(=O)[C@H](CCCCNC(C)=O)NC(=O)[C@H](C)NC(=O)[C@H](CCCNC(=N)N)NC(=O)[C@@H](NC(=O)[C@H](CCCCN)NC(=O)[C@H](CCC(=O)O)NC(=O)[C@H](CCCNC(=N)N)NC(=O)CNC(=O)[C@H](CCC(=O)O)NC(=O)[C@H](CC(C)C)NC(C)=O)C(C)C)[C@@H](C)CC)[C@@H](C)O)C(N)=O)C(=O)O)C(=O)O)C(=O)O` [compound 46] (Ac-LEGREKVRAK(Ac)I[Aib][Aib]EG[Nle]STYS[Aib]RKK(Ac)[PEG12]K([γGlu-γGlu-γGlu-Stearoyl])-NH2), the EC50 worked out at 0.61 nM and the Emax was determined as 79%.

Take `CCCCCCCCCCCCCCCC(=O)N[C@@H](CCC(=O)N[C@@H](CCC(=O)N[C@@H](CCC(=O)NCCOCCOCC(=O)NCCOCCOCC(=O)NCCOCCOCC(=O)NCCOCCOCC(=O)NCCCC[C@H](NC(=O)[C@H](CCCCNC(C)=O)NC(=O)[C@H](CCCCN)NC(=O)[C@H](CCCNC(=N)N)NC(=O)C(C)(C)NC(=O)[C@H](CO)NC(=O)[C@H](Cc1ccccc1)NC(=O)[C@@H](NC(=O)[C@H](CO)NC(=O)[C@H](CCCC)NC(=O)CNC(=O)[C@H](CCC(=O)O)NC(=O)C(C)(C)NC(=O)C(C)(C)NC(=O)[C@@H](NC(=O)[C@H](CCCCNC(C)=O)NC(=O)[C@H](C)NC(=O)[C@H](CCCNC(=N)N)NC(=O)[C@@H](NC(=O)[C@H](CCCCN)NC(=O)[C@H](CCC(=O)O)NC(=O)[C@H](CCCNC(=N)N)NC(=O)CNC(=O)[C@H](CCC(=O)O)NC(=O)[C@H](CC(C)C)NC(C)=O)C(C)C)[C@@H](C)CC)[C@@H](C)O)C(N)=O)C(=O)O)C(=O)O)C(=O)O` [compound 153] (Ac-LEGREKVRAK(Ac)I[Aib][Aib]EG[Nle]STFS[Aib]RKK(Ac)K([AEEA-AEEA-AEEA-AEEA-γGlu-γGlu-γGlu-Palmitoyl])-NH2): the EC50 amounted to 0.26 nM and the Emax was determined as 89%.

In the case of `CCCCCCCCCCCCCCCCCC(=O)N[C@@H](CCC(=O)N[C@@H](CCC(=O)N[C@@H](CCC(=O)NCCOCCOCC(=O)NCCOCCOCC(=O)NCCOCCOCC(=O)NCCCC[C@H](NC(=O)[C@H](CCCCN)NC(=O)[C@H](CCCCN)NC(=O)[C@H](CCCNC(=N)N)NC(=O)C(C)(C)NC(=O)[C@H](CO)NC(=O)[C@H](Cc1c[nH]c2ccccc12)NC(=O)[C@@H](NC(=O)[C@H](CO)NC(=O)[C@H](CCCC)NC(=O)CNC(=O)[C@H](CCC(=O)O)NC(=O)C(C)(C)NC(=O)C(C)(C)NC(=O)[C@@H](NC(=O)[C@H](CCC(N)=O)NC(=O)[C@H](CC(C)C)NC(=O)[C@H](CCCNC(=N)N)NC(=O)[C@@H](NC(=O)[C@H](CCCCN)NC(=O)[C@H](CCC(=O)O)NC(=O)[C@H](CCCNC(=N)N)NC(=O)CNC(=O)[C@H](CCC(=O)O)NC(=O)[C@H](CC(C)C)NC(C)=O)C(C)C)[C@@H](C)CC)[C@@H](C)O)C(N)=O)C(=O)O)C(=O)O)C(=O)O` [compound 77] (Ac-LEGREKVRLQI[Aib][Aib]EG[Nle]STWS[Aib]RKKK([AEEA-AEEA-AEEA-γGlu-γGlu-γGlu-Stearoyl])-NH2), the maximal response (Emax) worked out at 92%.
